In PMC5797045, “Characterization of CDK(5) inhibitor, 20-223 (aka CP668863) for colorectal cancer therapy” (Oncotarget, 2017):

Key:
[1] = biological target: T1, CDK2 (Homo sapiens, UniProt P24941); assay: cell-free kinase assay, 10-point dose response; type: biochemical
T1 construct: with Cyclin E

[2] = biological target: T2, CDK5 (Homo sapiens, UniProt Q00535); assay: cell-free kinase assay, 10-point dose response; type: biochemical
T2 construct: with p35
T2 sequence (Q00535 whole entry): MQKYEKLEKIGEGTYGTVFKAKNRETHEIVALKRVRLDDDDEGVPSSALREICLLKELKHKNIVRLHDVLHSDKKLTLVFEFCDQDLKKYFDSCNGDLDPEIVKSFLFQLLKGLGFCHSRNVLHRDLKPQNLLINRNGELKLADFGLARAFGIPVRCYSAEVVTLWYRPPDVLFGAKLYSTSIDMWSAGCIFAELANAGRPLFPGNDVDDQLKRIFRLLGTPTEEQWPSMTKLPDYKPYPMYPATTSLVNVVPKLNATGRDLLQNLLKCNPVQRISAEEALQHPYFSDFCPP
T2 sequence (Q15078 2-307 partner): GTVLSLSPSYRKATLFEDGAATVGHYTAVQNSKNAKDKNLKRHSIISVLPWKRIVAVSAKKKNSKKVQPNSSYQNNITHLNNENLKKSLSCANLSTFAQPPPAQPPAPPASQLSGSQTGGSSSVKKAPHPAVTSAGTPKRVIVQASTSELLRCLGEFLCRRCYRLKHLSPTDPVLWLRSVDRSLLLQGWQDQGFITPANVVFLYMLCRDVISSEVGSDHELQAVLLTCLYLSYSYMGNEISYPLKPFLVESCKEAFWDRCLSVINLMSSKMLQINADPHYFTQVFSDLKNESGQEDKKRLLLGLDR

O=C(Cc1ccc2ccccc2c1)Nc1cc(C2CCC2)[nH]n1 [20-223]
IC50 [1]: 6 nM | IC50 [2]: 8.8 nM
